This is an account of results in EP2975030B1, “DIHYDROPYRIDAZINE-3,5-DIONE DERIVATIVE” (Chugai Seiyaku Kabushiki Kaisha, priority 2013, dated 2014).

This test has as its system rat small-intestinal brush border membrane vesicles. Briefly: Inhibitory effect on 33PO4 uptake into rat small-intestinal brush border membrane vesicles (rapid filtration method). The class given is biochemical, Wistar female rat. The settings on record: 1 µM test compound; 33PO4 uptake into rat small-intestinal BBMVs, 60 seconds. Put shortly:
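Uptake was terminated by ice-cold 110 mM NaCl, 1 mM KH2PO4, 10 mM HEPES (pH 7.5) buffer and immediate suction filtration, then washing. Using rat small-intestinal BBMVs, retained 33PO4 was quantified by liquid scintillation counting as transport activity.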
With `CN1N(Cc2ccc(OCCOCCNCC(O)CO)c(F)c2F)C(=O)C(C(=O)Nc2ccc(C(F)(F)F)cc2-c2cc(C(F)(F)F)ncn2)=C(O)C12CCCC2` (centres unmarked) [Example 419, 7-[[4-[2-[2-(2,3-Dihydroxypropylamino)ethoxy]ethoxy]-2,3-difluorophenyl]methyl]-10-hydroxy-6-methyl-8-oxo-N-[4-(trifluoromethyl)-2-[6-(trifluoromethyl)pyrimidin-4-yl]phenyl]-6,7-diazaspiro[4.5]dec-9-ene-9-carboxamide], the “Rate of uptake inhibition (%) (1 µM)” value came out at 22%. The same measure for `COc1cccc(CN2C(=O)C(C(=O)Nc3ccc(C(F)(F)F)cc3-c3ccc(C(F)(F)F)nc3)=C(O)[C@@]3(C)CCCN23)c1OC` [Example 175]: 85%.

`CN1N(Cc2ccc(OCCN3[C@@H]4COC[C@H]3C4)c(F)c2F)C(=O)C(C(=O)Nc2ccc(C(F)(F)F)cc2-c2cc(C(F)(F)F)ncn2)=C(O)C12CCC2` [Example 339]: the “Rate of uptake inhibition (%) (1 µM)” value came to 66%. Then `C[C@]12CCCN1N(Cc1cccc(F)c1F)C(=O)C(C(=O)Nc1ccc(Br)cn1)=C2O` [Example 78], with 71%. As to `COc1cccc(-c2cc(C(F)(F)F)ccc2NC(=O)C2=C(O)[C@@]3(C)CCCN3N(Cc3ccc(C#CCOCCO)c(F)c3F)C2=O)c1OC` [Example 137], the “Rate of uptake inhibition (%) (1 µM)” value was 92%.

On to `CSc1ncc(-c2cc(C(F)(F)F)ccc2NC(=O)C2=C(O)[C@@]3(C)CCCN3N(Cc3ccc(C#CCCCCC(=O)O)c(F)c3F)C2=O)cn1` [Example 118, 7-[4-[[(4aR)-4-Hydroxy-4a-methyl-3-[[2-(2-methylsulfanylpyrimidin-5-yl)-4-(trifluoromethyl)phenyl]carbamoyl)-2-oxo-6,7-dihydro-5H-pyrrolo[1,2-b]pyridazin-1-yl]methyl]-2,3-difluorophenyl]hept-6-ynoate], for which the “Rate of uptake inhibition (%) (1 µM)” value worked out at 81%. Then `COc1c(C#N)ncnc1-c1cc(C(F)(F)F)ccc1NC(=O)C1=C(O)[C@@]2(C)CCCN2N(Cc2cccc(F)c2F)C1=O` [Example 25], with 82%; and `C[C@]12CCCN1N(Cc1ccccc1Cl)C(=O)C(C(=O)Nc1ccc(C(F)(F)F)cc1-c1ccc(C(F)(F)F)nc1)=C2O` [Example 168], with 72%. Take `CN1N(Cc2cccc(F)c2F)C(=O)C(C(=O)Nc2ccc(C(F)(F)F)cc2-c2cc(C#N)ncn2)=C(O)C1(C)C` [Example 303]: the “Rate of uptake inhibition (%) (1 µM)” value is reported as 42%. The same measure for `CN1N(Cc2ccc(OCCN3CCOCC3)c(F)c2F)C(=O)C(C(=O)Nc2ccc(Cl)cc2-c2cc(C(F)(F)F)ncn2)=C(O)C12CCCCC2` [Example 297]: 36%; for “(4aR)-1-[(3-Fluorophenyl)methyl]4-hydroxy-N-[5-methyl-2-(trifluoromethyl)furan-3-yl]-2-oxo-4a-propyl-6,7-dihydro-5H-pyrrolo[1,2-b]pyridazine-3-carboxamide [Example 11]”: 22%. `CN1N(Cc2cccc(F)c2F)C(=O)C(C(=O)Nc2ccc(Cl)cc2-c2cc(C(F)(F)F)ncn2)=C(O)C12CCC2` [Example 255]: the “Rate of uptake inhibition (%) (1 µM)” value is recorded as 80%. Then `CN(CCOCCC(=O)N(C)C[C@H](O)[C@@H](O)[C@H](O)[C@H](O)CO)CCOc1ccc(CN2C(=O)C(C(=O)Nc3ccc(C(F)(F)F)cc3-c3cc(C(F)(F)F)ncn3)=C(O)C3(CCCC3)N2C)c(F)c1F` [Example 425], with 5%; and `CSc1ccc(-c2cc(C(F)(F)F)ccc2NC(=O)C2=C(O)[C@@]3(C)CCCN3N(Cc3ccc(OCCCCOC[C@H](O)CO)c(F)c3F)C2=O)cn1` [Example 120], with 66%.

In the case of `C[C@]12CCCN1N(Cc1c(F)cc(C#CCCCCCOC[C@H](O)[C@@H](O)CO)cc1F)C(=O)C(C(=O)Nc1ccc(C(F)(F)F)cc1-c1ccc(C(F)(F)F)nc1)=C2O` [Example 124], the “Rate of uptake inhibition (%) (1 µM)” value was 81%. Then `C[C@]12CCCN1N(Cc1cccc(F)c1F)C(=O)C(C(=O)Nc1ccc(C(F)(F)F)cc1-c1cnc(Cl)cn1)=C2O` [Example 74], with 82%. On to `CC(C)(C)[C@H]1C(O)=C(C(=O)Nc2cc(F)c(Br)c(F)c2)C(=O)N(Cc2cccc(F)c2F)N1CC(F)(F)F` [Example 248], for which the “Rate of uptake inhibition (%) (1 µM)” value was found to be 45%. For `C[C@]12CCCN1N(Cc1cccc(F)c1F)C(=O)C(C(=O)Nc1ccc(C(F)(F)F)cc1-c1cnc(Cl)nc1)=C2O` [Example 67], the “Rate of uptake inhibition (%) (1 µM)” value is 91%. On to `C[C@]12CCCN1N(Cc1cccc(F)c1F)C(=O)C(C(=O)Nc1ccc(C(F)(F)F)cc1-c1ncnc(C#N)c1Cl)=C2O` [Example 23], for which the “Rate of uptake inhibition (%) (1 µM)” value is listed as 84%. As for `COC(=O)COc1ccc(CN2C(=O)C(C(=O)Nc3ccc(C(F)(F)F)cc3-c3ccc(C(F)(F)F)nc3)=C(O)[C@@]3(C)CCCN23)c(F)c1F` [Example 150, Methyl 2-[4-[[(4aR)-4-Hydroxy-4a-methyl-2-oxo-3-[[4-(trifluoromethyl)-2-[6-(trifluoromethyl)pyridin-3-yl]phenyl]carbamoyl]-6,7-dihydro-5H-pyrrolo[1,2-b]pyridazin-1-yl]methyl]-2,3-difluorophenoxy] acetate], the “Rate of uptake inhibition (%) (1 µM)” value amounted to 87%. Then `C[C@]12CCCN1N(Cc1ccccc1F)C(=O)C(C(=O)Nc1ccc(C(F)(F)F)cc1-c1cc(C(F)(F)F)ncn1)=C2O` [Example 207], with 73%; and `Cc1cc(NC(=O)C2=C(O)[C@@H]3CCCN3N(Cc3cccc(F)c3)C2=O)c(C(F)(F)F)o1` [Example 1, (4aS)-1-[(3-Fluorophenyl)methyl]-4-hydroxy-N-[5-methyl-2-(trifluoromethyl)furan-3-yl]-2-oxo-4a,5,6,7-tetrahydropyrrolo[1,2-b]pyridazine-3-carboxamide], with 28%. Take `C[C@]12CCCN1N(Cc1ccc(OCCN3CCOCC3)c(Cl)c1)C(=O)C(C(=O)Nc1ccc(C(F)(F)F)cc1-c1ccc(C(F)(F)F)nc1)=C2O` [Example 149, (4aR)-1-[[3-Chloro-4-(2-morpholin-4-ylethoxy)phenyl]methyl]-4-hydroxy-4a-methyl-2-oxo-N-[4-(trifluoromethyl)-2-[6-(trifluoromethyl)pyridin-3-yl]phenyl]-6,7-dihydro-5H-pyrrolo[1,2-b]pyridazine-3-carboxamide]: the “Rate of uptake inhibition (%) (1 µM)” value is on record as 80%. Take `CN1N(Cc2ccc(OC(C)(C)CN3CCOCC3)c(F)c2F)C(=O)C(C(=O)Nc2ccc(C(F)(F)F)cc2-c2cc(C(F)(F)F)ncn2)=C(O)C12CCC2` [Example 407, 6-[[2,3-Difluoro-4-(2-methyl-1-morpholin-4-ylpropan-2-yl)oxyphenyl]methyl]-9-hydroxy-5-methyl-7-oxo-N-[4-(trifluoromethyl)-2-[6-(trifluoromethyl)pyrimidin-4-yl]phenyl]-5,6-diazaspiro[3.5]non-8-ene-8-carboxamide]: the “Rate of uptake inhibition (%) (1 µM)” value amounted to 30%. The same measure for `CN1[C@@H](C(C)(C)C)C(O)=C(C(=O)Nc2ccc(Br)c(C(F)(F)F)n2)C(=O)N1Cc1cccc(F)c1F` [Example 242]: 69%; for `CSc1ccc(-c2nc(C(F)(F)F)ccc2NC(=O)C2=C(O)[C@@]3(C)CCCN3N(Cc3cccc(F)c3F)C2=O)cn1` [Example 105]: 72%.
